Results on four compounds are retold here after patent publication US20160168186A1, “Method of Treating Dengue Fever” (RIBOSCIENCE LLC, priority 2011, published 2016).

Read-outs that look alike come from different tables or passages of the source.

The test system of series [1] is H241: dengue virus serotype 4. As to the kind of experiment: Dendritic Cells Infection Assay (viral RNA by real time PCR). Format: cell-based. Particulars: Dendritic cell, human primary immature monocyte derived dendritic cells, MOI 2, 24 h, dengue RNA relative to 18S rRNA. As to the method:
Cryopreserved human immature monocyte derived Dendritic Cells (iDC) from individual donors were obtained from Stemcell Technologies (CAT# PB-DC001F). iDC were counted and incubated at a concentration of 15,000 cells/well (96 well plate) in RPMI 1640 media containing 10% (v/v) fetal bovine serum (FBS), 1% (v/v) penicillin/streptomycin (Invitrogen™) for 48 h at 37° C. in a 90% humidified, 5% CO2 atmosphere prior to the start of the experiment.
In a 96 well flat-bottom plate, 15000 iDC from individual donors were infected with dengue virus at a multiplicity of infection (MOI) of 2 in a volume of 50 μl for 2 h. After Infection iDCs were washed and cultured in complete RPMI media in the presence of serially diluted compounds. Each virus/drug combination was tested either in duplicate or triplicate (Depending on the availability of iDC from individual donors). Plates were incubated for 24 h at 37° C. in a 90% humidified, 5% CO2 atmosphere. After 24 h cells were washed and cellular RNA were isolated. Viral RNA and endogenous 18S rRNA control (Applied Bio Systems) was quantified by a real time PCR assay. The viability of mock-infected and infected iDC were monitored at described time points using a CellTiter Glo® (promega) assay according to manufacturer's recommendation.
Cellular RNA was isolated by PerfectPure™ RNA 96 cell kit (5 PRIME) according to manufacturer's recommendation. Transcriptor First Strand cDNA Synthesis Kit (Roche) was used to generate cDNA using random hexamer primers. […] First ΔCt was calculated by subtracting the 18S rRNA CT value from the dengue RNA CT value. ΔCts from duplicate taqman assay were averaged. […] Relative quantification was calculated using the following formula. Relative quantification=2^−averageΔΔCT. […]
(In general: Quantitative PCR measures a nucleic acid by following its amplification.)

For series [2], the system named is dengue. The note with it: mouse model; cited from earlier work.
Series [3] relates to dengue. The note with it: cited from earlier work.
Series [4] concerns dengue. Particulars: by inhibiting the dengue 2′-O-methyltransferase NS5 domain; cited from earlier work.

Regarding `C[C@H](NP(=O)(OC[C@@]1(N=[N+]=[N-])O[C@@H](n2cnc3c(N)ncnc32)[C@H](O)[C@@H]1O)Oc1ccccc1)C(=O)OCc1ccccc1` (stereo partly drawn) [Compound I-2, (S)-2-{[(2R,3S,4R,5R)-5-(6-Amino-purin-9-yl)-2-azido-3,4-dihydroxy-tetrahydro-furan-2-ylmethoxy]-phenoxy-phosphorylamino}-propionic acid benzyl ester], the IC50 in series [1] stood at 1.9 µM. With `[N-]=[N+]=N[C@]1(COP(=O)(N[C@@H](Cc2ccccc2)C(=O)OCc2ccccc2)Oc2cccc3ccccc23)O[C@@H](n2ccc(=O)[nH]c2=O)[C@H](O)[C@@H]1O` (stereo partly drawn) [Compound I-9, (S)-2-[[(2R,3S,4R,5R)-2-Azido-5-(2,4-dioxo-3,4-dihydro-2H-pyrimidin-1-yl)-3,4-dihydroxy-tetrahydro-furan-2-ylmethoxy]-(naphthalen-1-yloxy)-phosphorylamino]-3-phenyl-propionic acid benzyl ester], the IC50 in series [1] amounted to 16 µM. Still for that read-out and setting: as for `CCOC(=O)[C@H](Cc1ccccc1)NP(=O)(OC[C@@]1(N=[N+]=[N-])O[C@@H](n2ccc(=O)[nH]c2=O)[C@H](O)[C@@H]1O)Oc1cccc2ccccc12` (stereo partly drawn) [Compound I-10, (S)-2-[[(2R,3S,4R,5R)-2-Azido-5-(2,4-dioxo-3,4-dihydro-2H-pyrimidin-1-yl)-3,4-dihydroxy-tetrahydro-furan-2-ylmethoxy]-(naphthalen-1-yloxy)-phosphorylamino]-3-phenyl-propionic acid ethyl ester], the figure is 15 µM. On to `NC(=O)c1ncn([C@@H]2O[C@H](CO)[C@@H](O)[C@H]2O)n1` [Ribavirin], for which the protection against dengue entry in series [2] and in series [3] (rhesus monkey model) was “did not show protection” each time. In series [3] (mouse model or rhesus monkey model, text does not say which), the adverse effects entry was “induced anemia and thrombocytosis”. For the same compound, the “activity against dengue in tissue culture” value in series [4] is “works against dengue in tissue culture”.

For orientation: IC50 means the concentration needed to halve the response being measured.
